Experimental data reported in patent US20070167353A1, “PRODRUG COMPOSITION” (priority 2003, published 2007).

Columns and labels:
[1] = biological target: T1, HPEPT1 (Homo sapiens, UniProt P46059); assay: Inhibition of radiolabelled Gly-Sar uptake in DC5 cells overexpressing HPEPT1; type: cell-based; parameters: expressed in transfected cells; host or cells: HeLa cells overexpressing hPEPT1 (called 'HPEPT1 infected cells'); details: inhibition of Gly-Sar uptake, DC5 cells overexpressing HPEPT1, 10 min, 37° C.; read-out: DC5 IC50
T1 sequence (P46059 1-708): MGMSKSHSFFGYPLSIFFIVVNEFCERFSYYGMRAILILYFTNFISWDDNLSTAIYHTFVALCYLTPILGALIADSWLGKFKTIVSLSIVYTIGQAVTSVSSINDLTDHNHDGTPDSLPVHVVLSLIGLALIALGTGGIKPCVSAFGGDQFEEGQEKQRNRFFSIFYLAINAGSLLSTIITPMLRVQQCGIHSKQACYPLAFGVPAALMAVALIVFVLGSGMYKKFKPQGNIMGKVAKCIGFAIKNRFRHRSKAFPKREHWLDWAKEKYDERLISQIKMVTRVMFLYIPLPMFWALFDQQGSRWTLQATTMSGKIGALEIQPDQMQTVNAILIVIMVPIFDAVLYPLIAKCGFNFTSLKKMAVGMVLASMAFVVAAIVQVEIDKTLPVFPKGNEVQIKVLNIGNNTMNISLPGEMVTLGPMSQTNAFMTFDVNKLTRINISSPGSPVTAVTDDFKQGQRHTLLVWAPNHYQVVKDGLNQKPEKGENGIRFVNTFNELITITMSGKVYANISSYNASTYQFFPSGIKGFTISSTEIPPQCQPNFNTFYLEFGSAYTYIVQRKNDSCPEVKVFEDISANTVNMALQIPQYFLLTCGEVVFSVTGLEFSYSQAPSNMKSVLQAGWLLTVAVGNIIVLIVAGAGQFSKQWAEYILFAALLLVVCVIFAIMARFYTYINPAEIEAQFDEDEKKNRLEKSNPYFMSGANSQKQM
Description: Amino acid prodrugs are tested for their interaction with the dipeptide transporter, HPEPT1, using tissue culture cells that are engineered to overexpress HPEPT1. In this example, the cells that overexpress HPEPT1, termed DC5, are a human meduloblastoma cell line that is stably transfected with a eukaryotic expression vector encoding HPEPT1. […] DC5 cells are plated at a density of 12,000 cells/well in 96-well tissue culture plates and allowed to grow for 2 days. The cells are washed once with 200 microliters of uptake buffer and aspirated. The plates are cooled to 4° C. and 25 ul of uptake buffer containing 125 nanomoles Gly-Sar (at a specific activity of 1 microcurie/micromole) is added. The uptake buffer also contains the prodrugs to be tested at concentrations ranging from 10 micromolar to 20 millimolar. The assay is initiated by placing the plate in a shaking water bath at 37° C. and is terminated after 10 min by rapid washing with multiple changes of 4° C. phosphate buffered saline (PBS). The radioactive Gly-Sar peptide that is transported by the hpept1 is extracted from the cell layer with 200 ul of a one to one mixture of methanol and water and is counted in 4 ml of CytoScint ES™ scintillation cocktail (ICN). The data are plotted as % Gly-Sar uptake of control (no competitive substrate) versus the competitive substrate concentration. […] Typically, values that are below 10 mM indicate that the drug interacts with transporter.

[2] = biological target: T1, HPEPT1; details: for Uptake (hPepT1): HeLa cells overexpressing HPEPT1, 50 micromolar, pH 6.0, 45 minutes; for hPepT1/Control: ratio of uptake in hPepT1 cells versus control cells
[3] = not given; remark: listed apart in the source
[4] = not given; remark: listed apart in the source
[5] = biological target: T2, biphenyl hydrolase-like enzyme (BPHL) (Homo sapiens, UniProt Q86WA6); type: biochemical
T2 sequence (Q86WA6 38-291): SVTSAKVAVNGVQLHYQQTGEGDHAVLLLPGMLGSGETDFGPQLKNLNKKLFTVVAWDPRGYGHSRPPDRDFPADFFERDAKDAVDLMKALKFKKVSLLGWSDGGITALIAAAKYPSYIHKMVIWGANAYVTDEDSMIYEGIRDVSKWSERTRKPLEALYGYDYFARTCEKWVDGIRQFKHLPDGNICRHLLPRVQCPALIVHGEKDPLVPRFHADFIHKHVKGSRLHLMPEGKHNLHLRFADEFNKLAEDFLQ

SMILES | IC50 [1] [mM] | Uptake (hPepT1) [2] | hPepT1/Control [2] | t1/2 Human plasma [min] | t1/2 Caco-2 cell homogenates [3] [min] | t1/2 Buffer pH 7.4 [4] [min] | % of Control (VACV) [5] [%]
Nc1nc(O)c2ncn(COC(CO)CO)c2n1 [Ganciclovir, reference compound] | > 20 |  |  |  |  |  | 
CC[C@H](C)[C@H](N)C(=O)O[C@@H]1[C@@H](CO)O[C@@H](n2ccc(N)nc2=O)C1(F)F [3′-O-L-isoleucyl gemcitabine] | 2.18 | 1.03 ± 0.11 nmole/mg/45 min | 1.09 | 8.0 ± 0.1 | 10.6 ± 0.3 | 66.0 ± 0.21 | 
Nc1ccn([C@@H]2O[C@H](CO)[C@@H](OC(=O)[C@H](N)Cc3ccccc3)C2(F)F)c(=O)n1 [3′-O-D-phenylalanyl Gemcitabine] |  | Not detected |  | 7.7 ± 0.2 | 8.8 ± 0.1 | 39.0 ± 0.7 | 
CC(C)[C@@H](N)C(=O)O[C@@H]1[C@@H](CO)O[C@@H](n2ccc(N)nc2=O)C1(F)F [3′-O-D-valyl Gemcitabine] |  | 0.81 ± 0.02 nmole/mg/45 min | 1.06 | 5.99 ± 0.0 | 23.2 ± 0.2 | 74.0 ± 1.2 | 
CC(C)[C@@H](N)C(=O)OC[C@H]1O[C@@H](n2ccc(N)nc2=O)C(F)(F)[C@@H]1O [5′-O-D-valyl Gemcitabine] |  | 1.14 ± 0.04 nmole/mg/45 min | 1.58 | 58.1 ± 2.1 | 37.4 ± 1.4 | 424.0 ± 1.2 | 
NC(CC(=O)O)C(=O)OCC1OC(n2cc(F)c(=O)[nH]c2=O)CC1OC(=O)C(N)CC(=O)O (stereo not drawn) [3′,5′-di-O-aspartyl-Floxuridine] | 9.55 |  |  |  |  |  | 0.0
CC(C)[C@@H](N)C(=O)OC[C@H]1O[C@@H](n2ccc(N)nc2=O)C(F)(F)[C@@H]1OC(=O)[C@H](N)C(C)C [3′,5′-di-O-D-valyl gemcitabine] |  | 1.11 ± 0.08 nmole/mg/45 min | 1.13 | 2.1 ± 0.1 | 10.3 ± 0.7 | 52.0 ± 1.1 | 
CC(C)[C@H](N)C(=O)OC[C@H]1O[C@@H](n2ccc(N)nc2=O)C(F)(F)[C@@H]1O [5′-O-L-valyl Gemcitabine] | 0.7 | 2.14 ± 0.05 nmole/mg/45 min | 11.25 | 56.4 ± 2.9 | 7.1 ± 0.6 | 416.0 ± 8.5 | 
CC(C)[C@H](N)C(=O)OC[C@H]1O[C@@H](n2ccc(N)nc2=O)C(F)(F)[C@@H]1OC(=O)[C@@H](N)C(C)C [3′,5′-di-O-L-valyl Gemcitabine] | 1.72 | 1.76 ± 0.09 nmole/mg/45 min | 1.15 | 2.0 ± 0.1 | 0.9 ± 0.0 | 55.0 ± 2.7 | 
Nc1ccn([C@@H]2O[C@H](COC(=O)[C@H](N)Cc3ccccc3)[C@@H](O)C2(F)F)c(=O)n1 [5′-O-D-phenylalanyl Gemcitabine] |  | Not detected |  | 34.8 ± 1.1 | 11.4 ± 0.2 | 204.0 ± 3.5 | 
O=c1[nH]c(=O)n([C@H]2C[C@H](O)[C@@H](CO)O2)cc1F [Floxuridine, reference compound] | > 20 |  |  |  |  |  | 
Nc1ccn([C@@H]2O[C@H](CO)[C@@H](OC(=O)[C@@H](N)Cc3ccccc3)C2(F)F)c(=O)n1 [3′-O-L-phenylalanyl Gemcitabine] |  | Not detected |  | 5.7 ± 0.1 | 0.8 ± 0.0 | 39.0 ± 0.12 | 
CC[C@H](C)[C@H](N)C(=O)OC[C@H]1O[C@@H](n2ccc(N)nc2=O)C(F)(F)[C@@H]1O [5′-O-L-isoleucyl gemcitabine] | 0.61 | 1.22 ± 0.05 nmole/mg/45 min | 5.64 | 99.2 ± 1.6 | 75.3 ± 2.8 | 452.0 ± 9.6 | 
O=C(OC1CC(n2cc(F)c(=O)[nH]c2=O)OC1CO)C1CCCN1 (stereo not drawn) [3′-O-prolyl-Floxuridine] | > 20 |  |  |  |  |  | 
O=C(OCC1OC(n2cc(F)c(=O)[nH]c2=O)CC1OC(=O)C1CCCN1)C1CCCN1 (stereo not drawn) [3′,5′-di-O-prolyl-Floxuridine] | > 20 |  |  |  |  |  | 
Nc1ccn([C@@H]2O[C@H](CO)[C@@H](O)C2(F)F)c(=O)n1 [Gemcitabine, reference compound] | > 20 |  |  |  |  |  | 
Nc1nc2c(ncn2COCCO)c(=O)[nH]1 [Acyclovir, reference compound] | > 25 |  |  |  |  |  | 
NCCCC[C@H](N)C(=O)OC[C@H]1O[C@@H](n2cc(F)c(=O)[nH]c2=O)C[C@@H]1O [5′ lysyl monoester Floxuridine] |  |  |  |  |  |  | 8.1
NCCCCC(N)C(=O)OCC1OC(n2cc(F)c(=O)[nH]c2=O)CC1OC(=O)C(N)CCCCN (stereo not drawn) [3′,5′ lysyl diester Floxuridine] |  |  |  |  |  |  | 0.0
Nc1ccn([C@@H]2O[C@H](COC(=O)[C@H](N)Cc3ccccc3)[C@@H](OC(=O)[C@H](N)Cc3ccccc3)C2(F)F)c(=O)n1 [3′,5′-di-O-D-phenylalanyl Gemcitabine] |  | Not detected |  | 2.4 ± 0.2 | 8.3 ± 0.6 | 28.0 ± 0.6 | 
CC[C@H](C)[C@H](N)C(=O)OC[C@H]1O[C@@H](n2ccc(N)nc2=O)C(F)(F)[C@@H]1OC(=O)[C@@H](N)[C@@H](C)CC [3′,5′-di-O-L-isoleucyl gemcitabine] | 0.82 | 1.16 ± 0.13 nmole/mg/45 min | 1.06 | 2.64 ± 0.0 | 2.1 ± 0.0 | 61.0 ± 0.5 | 
CC(C)[C@H](N)C(=O)O[C@@H]1[C@@H](CO)O[C@@H](n2ccc(N)nc2=O)C1(F)F [3′-O-L-valyl Gemcitabine] | 3.69 | 1.12 ± 0.07 nmole/mg/45 min | 1.11 | 5.4 ± 0.1 | 5.0 ± 0.1 | 64.0 ± 1.4 | 
Nc1ccn([C@@H]2O[C@H](COC(=O)[C@@H](N)Cc3ccccc3)[C@@H](OC(=O)[C@@H](N)Cc3ccccc3)C2(F)F)c(=O)n1 [3′,5′-di-O-L-phenylalanyl gemcitabine] |  | Not detected |  | 0.7 ± 0.0 | 0.6 ± 0.0 | 38.0 ± 0.2 | 
NCCCC[C@H](N)C(=O)O[C@H]1C[C@H](n2cc(F)c(=O)[nH]c2=O)O[C@@H]1CO [3′ lysyl monoester Floxuridine] |  |  |  |  |  |  | 7.3
Nc1ccn([C@@H]2O[C@H](COC(=O)[C@@H](N)Cc3ccccc3)[C@@H](O)C2(F)F)c(=O)n1 [5′-O-L-phenylalanyl Gemcitabine] |  | Not detected |  | 8.4 ± 0.2 | 3.2 ± 0.1 | 200.0 ± 1.9 | 
O=C(OCC1OC(n2cc(F)c(=O)[nH]c2=O)CC1O)C1CCCN1 (stereo not drawn) [5′-O-prolyl-Floxuridine] | > 20 |  |  |  |  |  | 
